Format in all cases: cell-based, human
Assay [1] concerns HepG2. Description: MTT cytotoxicity assay, HepG2. The note with it: for inhibitive ratio: HepG2, 20 μmol/L, 48 h; for IC50: HepG2, 48 h, MTT. The procedure: (§1) The in vitro cytotoxicity of OD, 1–3 and the corresponding metal salts were determined by MTT assay towards a panel of human tumor cells including HepG2, T-24, BEL-7404, MGC80-3, SK-OV-3/DDP and normal HL-7702 cells. As the positive control, cisplatin was dissolved at a concentration of 1 mM in 0.154 M NaCl[32].
(§2) The human tumor cell lines (BEL-7404, HepG2, MGC80–3, T-24, SK-OV-3/DDP and HeLa cells) and the human normal liver cell line HL-7702 were obtained from Shanghai Cell Bank in Chinese Academy of Sciences. Cells were cultured in Dulbecco’s modified Eagle’s medium (DMEM) or RPMI-1640 medium, which supplemented with 10% fetal bovine serum (FBS) and 100 U/mL penicillin and streptomycin. Cells were cultured at 37 °C in a humidified atmosphere with 5% CO2/95% air. Tested compounds (2.0 mM) were prepared as DMSO stock solution before they were diluted to working concentrations by PBS buffer (containing 0.5% DMSO), while cisplatin dissolved in 0.9% sodium chloride solution was used as positive controls.
(§3) Cells in their logarithmic phase were seeded in 96-well plates with 5.5 × 10^3/180 μL per well for 24 h. Then 20 μL of compounds at various concentrations were added to each well to achieve final concentrations of 1.25, 2.5, 5.0, 10.0, and 20.0 μM. All the cells were incubated with test compounds for another 48 h before MTT assay. Control wells contained media with 0.5% DMSO. After 48 h of cultivation, 10 μL of MTT (5 mg/mL in PBS) was added to each well, and cells were incubated at 37 °C for 6 h. The contents in the wells were pipetted out carefully, and the formazan crystals formed were dissolved in 100 μL of DMSO, and the absorbance was measured by enzyme labeling instrument with 490 nm/630 nm double wavelength measurement. The IC50 value was defined as a drug concentration killing 50% cells in comparison with untreated controls, which was calculated by the Bliss method (n = 5). All tests were repeated in at least three independent trials.

Assay [2] deals with T-24. Description: MTT cytotoxicity assay, T-24. The settings on record: for inhibitive ratio: T-24, 20 μmol/L, 48 h; for IC50: T-24, 48 h, MTT. The procedure:
as §1, §2, §3

Assay [3] deals with BEL-7404. In words: MTT cytotoxicity assay, BEL-7404. The settings on record: for inhibitive ratio: BEL-7404, 20 μmol/L, 48 h; for IC50: BEL-7404, 48 h, MTT. The procedure: as §1, §2, §3
(In general: Tetrazolium dyes change colour on reduction, which living cells bring about.)

Assay [4] relates to MGC80-3. In words: MTT cytotoxicity assay, MGC80-3. The note with it: for inhibitive ratio: MGC80-3, 20 μmol/L, 48 h; for IC50: MGC80-3, 48 h, MTT. As to the method: as §1, §2, §3
Assay [5] has as its system SK-OV-3/DDP. Description: MTT cytotoxicity assay, SK-OV-3/DDP. The note with it: 48 h; for inhibitive ratio: SKOV-3/DDP, 20 μmol/L; for IC50: SK-OV-3/DDP, MTT. As to the method: as §1, §2, §3
Assay [6] has as its system HL-7702. Description: MTT cytotoxicity assay, normal liver cells HL-7702. The settings on record: 48 h; for inhibitive ratio: HL-7702, 20 μmol/L; for IC50: HL-7702 normal liver cells, MTT. The procedure: as §1, §2, §3
Assay [7] deals with HepG2 cells. In words: Comet assay for DNA damage. On the set-up: unit not given here. The settings on record: HepG2, 1.0 μM, 24 h. The procedure: After the observation of significant S-phase arrest caused by 1–3, the study of DNA damage assay is necessary. The single cell gel electrophoresis technique (comet assay) is a simple, sensitive, reliable, and rapid method to detect DNA damage in eukaryotic cell[39]. As shown in Table 3 and Fig. 6, 1–3 at 1.0 μM induced DNA damage (fragmentation or unwinding) appeared as fluorescent comets with remarkable increase of tails size, especially for 3.
The comet assay is a simple method for measuring DNA strand breaks in cells. The comet assay reagent kit was purchased from Trevigen, and the experiment was carried out according to the manufacturer’s instructions. After treatment with OD and 1–3 at 1.0 μM, HepG2 cells were harvested and suspended at 1 × 10^6 Hep-G2 cells/mL in PBS. The cells suspension was mixed with melted LM agarose at a ratio of 1:10 (v/v). An aliquot (75 μL) of the mixture was immediately pipetted onto the slide (Comet Slide TM). After refrigeration for 30 min, the slide was immersed in pre-chilled lysis solution and left on ice for 60 min, followed by immersing in freshly prepared alkaline solution (300 mM NaOH, 1 mM EDTA, pH > 13) for 60 min on ice in darkness. After DNA unwinding, the slide was subjected to alkaline solution for electrophoresis in a Savant ps 250 system set at 300 mA and 1 volt/cm for 30 min. After electrophoresis, the slide was rinsed with distilled H2O, fixed in 70% ethanol for 5 min and air-dried overnight. DNA was stained with SYBR Green I (Trevigen) and visualized under a fluorescence microscope (Nikon, Eclipse E600).

Assay [8] has as its system HepG2. In words: Cell apoptosis assay by flow cytometry, Annexin V-FITC/PI. The note with it: HepG2, 5.0 μM, 24 h. The procedure:
The quantitative analysis of apoptotic HepG2 induced by 1–3 (1.0, 2.0 and 5.0 μM) and their corresponding metal salts (5.0 μM) after 24 h treatment, were investigated by flow cytometry and Annexin V-FITC/PI double staining. As depicted in Figs 7 and S6, 1–3 caused a significant increase in apoptotic cells comparing to the untreated cells.
Cell cycle progression and apoptosis were determined by flow cytometric analysis. (a) Cell cycle arrest assay: HepG2 cells in their logarithmic phase were plated into 50 mL plates at a final density of 5−6 × 10^6 cells/well overnight, then they were treated with various doses (0.25, 0.5 and 1.0 μM) of 1–3 for another 24 h. Cells were trypsinized, collected, and fixed in ice-cold 75% ethanol at −20 °C overnight. After centrifugation, the fixed cells were rinsed with ice-cold phosphate buffered saline (PBS), and resuspended in 0.5 mL of PBS containing 100 μg/mL RNase, 50 μg/mL propidium iodide (PI) in the dark for 5−10 min. The cell cycle distribution was analyzed by FACS Calibur flow cytometer (BD) and calculated using ModFIT LT software. (b) Apoptosis assay: 1 × 10^5 HepG2 cells were plated in 6-well plates, after incubation for 24 h with complexes 1–3 at 1.0, 2.0 and 5.0 μM, cells were collected, and Apoptosis Detection kit FITC Annexin V was used to analyze the cell apoptosis according to the manufacturer’s instructions.
For orientation: In flow cytometry, cells or beads pass a laser one at a time.

Assay [9] concerns caspase-3. In words: Caspase-3 activation by flow cytometry (CaspGLOW). The note with it: HepG2, 1.0 μM, 24 h; control 4.2%. The procedure: (§4) Caspase family is closely related to the cell apoptosis via the mitochondrial pathway, especially caspases-3, -8 and -9. To better understand the antitumor mechanisms, it needs to confirm whether caspase-3, -8 and -9 are activated when the tumor cells are treated with 1–3.
(§5) The measurement of caspase-3, -8 and -9’s activities was performed by CaspGLOW fluorescein active caspase-3, -8 and -9 staining kit. HepG2 cells were treated with 1 μM 1–3 for 24 h, harvested at a density of 1 × 10^6 cells/mL, and then suspended in 300 μL volume with PBS. To the suspension, 1 μL of caspase-3 inhibitor (FITC-DEVD-FMK), caspase-8 inhibitor (FITC-IETD-FMK) or caspase-9 inhibitor (FITC-LEHD-FMK) was consequently added and incubated for 1 h at 37 °C in 5% CO2 incubator. The cells were then examined by a FACSAria II flow cytometer equipped with a 488 nm argon laser. The results were represented as the percent change on the activity compared with the control.

Assay [10] relates to caspase-8. Description: Caspase-8 activation by flow cytometry (CaspGLOW). The note with it: HepG2, 1.0 μM, 24 h; control 1.8%. As to the method:
as §4, §5

Assay [11] has as its system caspase-9. Description: Caspase-9 activation by flow cytometry (CaspGLOW). The note with it: HepG2, 1.0 μM, 24 h; control 1.9%. As to the method:
as §4, §5

This note sets out measurements from publication PMC5402304, “Oxoaporphine Metal Complexes (Co^II, Ni^II, Zn^II) with High Antitumor Activity by Inducing Mitochondria-Mediated Apoptosis and S-phase Arrest in HepG2” (Scientific Reports, 2017).

For `[Co+2].[O-][Cl+3]([O-])([O-])[O-].[O-][Cl+3]([O-])([O-])[O-]` [Co(ClO4)2, reference compound], the inhibitive ratio is 32.87±0.13% in assay [1]; 36.23±0.09% in [2]; 23.29±0.09% in [3]; 24.74±0.03% in assay [4]; 21.74±0.03% in [5]; 45.91±0187% in assay [6].

For the compound `[Ni+2].[O-][Cl+3]([O-])([O-])[O-].[O-][Cl+3]([O-])([O-])[O-]` [Ni(ClO4)2, reference compound], the inhibitive ratio in [1] amounted to 32.57±0.29%; in [2], 37.86±0.19%; in assay [3] it was 32.31±0.07%; in assay [4], 16.35±0.09%; in assay [5], 11.25±0.12%; in assay [6], 50.14±0.06%.

Take `[O-][Cl+3]([O-])([O-])[O-].[O-][Cl+3]([O-])([O-])[O-].[Zn+2]` [Zn(ClO4)2, reference compound]: the inhibitive ratio in assay [1] turned out to be 30.94±0.39%; in assay [2] it was 28.19±0.13%; in assay [3] it was 24.07±0.15%; in assay [4], 17.63±0.07%; in assay [5] it was 12.33±0.05%; in assay [6], 43.18±0.19%.

By IC50 is commonly meant the midpoint of a concentration-inhibition curve. Turning to [Co(OD)2(H2O)2](ClO4)2 [Complex 1], the inhibitive ratio is recorded as 88.34± 1.03% in [1]; 85.35±0.73% in [2]; 63.96±0.78% in assay [3]; 61.54±0.33% in [4]; 78.17±1.69% in assay [5]; 56.73±0.14% in [6]. Besides, the IC50 in assay [1] was found to be 660 ± 110 nM; in assay [2], 450 ± 170 nM; in assay [3] it was 8980 ± 150 nM; in assay [4] it was 1380 ± 140 nM; in assay [5], 260 ± 30 nM; in assay [6] it was 8110 ± 550 nM. For the same compound, the Comet length in assay [7] was found to be 65.45 ± 6.54. This compound also showed an Olive tail moment in assay [7] of 3.67 ± 2.09. Further, the Tail length in assay [7] is 8.01 ± 4.98. The compound further showed a Tail moment in assay [7] of 4.65 ± 1.34. Besides, the “population of apoptotic cells” value in assay [8] amounted to 33.1%. Besides, the “proportion of activated caspase-3” value in [9] was found to be 45.1%. Moreover, the “proportion of activated caspase-8” value in [10] stood at 35.3%. Besides, the “proportion of activated caspase-9” value in assay [11] stood at 27.7%.

In the case of [Ni(OD)2(CH3OH)2](ClO4)2 [Complex 2], the inhibitive ratio in [1] is reported as 87.68 ±0.92%; in assay [2] it was 82.31±0.60%; in [3] it was 69.38±0.65%; in assay [4] it was 71.86±0.28%; in assay [5] it was 84.44±0.65%; in [6], 72.34±0.22%. Moreover, the IC50 came out at 200 ± 90 nM in assay [1]; 230 ± 130 nM in assay [2]; 9660 ± 350 nM in assay [3]; 2860 ± 290 nM in assay [4]; 180 ± 30 nM in assay [5]; 5350 ± 340 nM in assay [6]. The Comet length in assay [7] is reported as 99.56 ± 10.57. For the same compound, the Olive tail moment in assay [7] is 20.56 ± 7.54. Moreover, in assay [7], the Tail length amounted to 45.69 ± 8.27. In assay [7], this compound came in with a Tail moment of 29.52 ± 8.66. Besides, the “population of apoptotic cells” value in assay [8] is listed as 26.1%. Further, the “proportion of activated caspase-3” value in [9] turned out to be 39.9%. Besides, in assay [10], the “proportion of activated caspase-8” value was 36.7%. In [11], the “proportion of activated caspase-9” value was found to be 36.0%.
